Data taken from ChEMBL document CHEMBL1201862, “PubChem BioAssay data set” (2004).
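All cell lines were grown in 96-well plates and treated with compound for 48 hours. The concentration for 50% growth inhibition is given as GI50.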 Activity calls are given as the source filed them. Rule as the data show it: active = GI50 up to about 1.1 µM and inactive = higher.

Assays:
Experiment in all cases: NCI tumour cell line growth inhibition, 48 h
[1] = system: ACHN
[2] = system: CCRF-CEM
[3] = system: HCT-116
[4] = system: HL-60
[5] = system: IGROV-1
[6] = system: M14
[7] = system: MOLT-4
[8] = system: NCI-H23
[9] = system: NCI-H460
[10] = system: NCI/ADR-RES
[11] = system: OVCAR-5
[12] = system: OVCAR-8
[13] = system: PC-3
[14] = system: SF-268
[15] = system: SF-539
[16] = system: SK-MEL-28
[17] = system: SNB-19
[18] = system: SNB-75
[19] = system: SR
[20] = system: UO-31

Measured: GI50

CN1Cc2cc(O)c(O)cc2C(O)C1 (stereo not given)
inactive: [1] > 100 µM | [2] 34.8 µM | [3] > 100 µM | [4] 38.3 µM | [5] > 100 µM | [6] > 100 µM | [7] > 100 µM | [8] > 100 µM | [9] > 100 µM | [10] > 100 µM | [11] > 100 µM | [12] > 100 µM | [13] > 100 µM | [14] > 100 µM | [15] > 100 µM | [16] > 100 µM | [17] > 100 µM | [18] > 100 µM | [19] 1.19 µM | [20] 83 µM

O=C1CC(/C=C/c2ccco2)=C(O)C1=O
inactive: [1] 15.9 µM | [2] 3 µM | [3] 13.6 µM | [4] 33.7 µM | [5] 10.7 µM | [6] 14.8 µM | [7] 14 µM | [8] 11.6 µM | [9] 17.6 µM | [10] 24.2 µM | [11] 13.9 µM | [12] 13.8 µM | [13] 10.2 µM | [14] 18.6 µM | [15] 13.9 µM | [16] 28.8 µM | [17] 14.8 µM | [18] 16 µM | [19] 6.05 µM | [20] 20.7 µM

CCC1(c2ccc(N)cc2)CCC(=O)NC1=O (stereo not given) [AMINOGLUTETHIMIDE]
inactive: [1] 2490 µM | [2] 665 µM | [3] 2620 µM | [4] 1280 µM | [5] 3450 µM | [6] 2290 µM | [7] 1440 µM | [8] 3240 µM | [9] 2580 µM | [10] 1680 µM | [11] > 4920 µM | [12] 3270 µM | [13] 1170 µM | [14] 2860 µM | [15] 3240 µM | [16] 3610 µM | [17] 3350 µM | [18] 1910 µM | [19] > 3820 µM | [20] 1930 µM
